Series [1] in a line: Accelerated stability test (ICH guideline), purity of the stored sucralose product by HPLC. In kind it is physicochemical. The note with it: 40° C. ± 2° C., 60% RH ± 5% RH. The protocol:
A test and analysis method for the purity of sucralose involved in the present disclosure could refer to the Chinese National Standard “GB25531-2010 for Food Additive Sucralose”.
Analysis and determination conditions of the purity of sucralose: High-performance liquid chromatograph from Shimadzu, Japan: RID-10A differential refractive index detector, LC-10ADVP high-pressure pump, and CTO-10ASVP incubator; chromatographic column: Agilent XDB C18 column (250 mm×4.6 mm, 5 μm); mobile phase: methanol-0.125% dipotassium phosphate (DKP) aqueous solution (4:6); column temperature: 30° C.; and flow rate: 1.0 mL/min. Methanol (chromatographically pure), DKP (analytically pure), UPW, and sucralose (purity: 99.9%) are required, and a content is determined by an external standard method.
The products obtained according to Examples 1 to 6 and Comparative Examples 1 to 3 each were subjected to an accelerated stability test.

Series [2] is described as follows: Bulk density determination (50 mL measuring cylinder, free-fall impact until compacted). Format: physicochemical. The following applies: sample compacted in 50 mL measuring cylinder, free-fall impact at 5 cm height. As to the method: Determination method of bulk density: A sample of an example is added to a 50 mL measuring cylinder and continuously subjected to free-fall impact at a height of 5 cm until the sample is compacted, and then a mass of the sample is measured to obtain bulk density data.

Experimental findings from patent publication US20230374054A1, “METHOD FOR PURIFYING SUCRALOSE” (ANHUI JINHE INDUSTRIAL CO., LTD., priority 2020, published 2023) are described below.

In the case of `OC[C@H]1O[C@H](O[C@]2(CCl)O[C@H](CCl)[C@@H](O)[C@@H]2O)[C@H](O)[C@@H](O)[C@H]1Cl` [Example 4, sucralose], in series [1], the “Purity after storage, One month” value was found to be 99.94%; the “Purity after storage, Six months” value was determined as 99.85%; the “Purity after storage, Three months” value was 99.91%; the “Purity after storage, Twelve months” value was 99.73%. For the same compound, in series [1], the “Purity after storage, Twenty-four months” value came to 99.69%. The Bulk density in series [2] is reported as 1.110 g/mL.

With `OC[C@H]1O[C@H](O[C@]2(CCl)O[C@H](CCl)[C@@H](O)[C@@H]2O)[C@H](O)[C@@H](O)[C@H]1Cl` [Example 5, sucralose], in series [1], the “Purity after storage, One month” value worked out at 99.85%; the “Purity after storage, Six months” value is 99.73%; the “Purity after storage, Three months” value stood at 99.79%; the “Purity after storage, Twelve months” value is listed as 99.60%. For the same compound, the “Purity after storage, Twenty-four months” value in series [1] stood at 99.35%. This compound also showed a Bulk density in series [2] of 1.103 g/mL.

Take `OC[C@H]1O[C@H](O[C@]2(CCl)O[C@H](CCl)[C@@H](O)[C@@H]2O)[C@H](O)[C@@H](O)[C@H]1Cl` [Comparative Example 3, sucralose]: in series [1], the “Purity after storage, One month” value is 99.63%; the “Purity after storage, Six months” value came to 99.50%; the “Purity after storage, Three months” value is recorded as 99.58%; the “Purity after storage, Twelve months” value was determined as 99.35%. The “Purity after storage, Twenty-four months” value in series [1] is given as 99.04%. In series [2], the Bulk density stood at 0.979 g/mL.

On to `OC[C@H]1O[C@H](O[C@]2(CCl)O[C@H](CCl)[C@@H](O)[C@@H]2O)[C@H](O)[C@@H](O)[C@H]1Cl` [Example 3, sucralose], for which, in series [1], the “Purity after storage, One month” value was 99.63%; the “Purity after storage, Six months” value is reported as 99.47%; the “Purity after storage, Three months” value is reported as 99.56%; the “Purity after storage, Twelve months” value stood at 99.26%. In addition, the “Purity after storage, Twenty-four months” value in series [1] was 98.87%. This compound also gave a Bulk density in series [2] of 1.067 g/mL.

Consider `OC[C@H]1O[C@H](O[C@]2(CCl)O[C@H](CCl)[C@@H](O)[C@@H]2O)[C@H](O)[C@@H](O)[C@H]1Cl` [Raw material, sucralose], for which, in series [1], the “Purity after storage, One month” value amounted to 99.36%; the “Purity after storage, Six months” value is 99.05%; the “Purity after storage, Three months” value stood at 99.12%; the “Purity after storage, Twelve months” value turned out to be 98.78%. Besides, in series [1], the “Purity after storage, Twenty-four months” value is 98.42%. For the same compound, the Bulk density in series [2] turned out to be 0.978 g/mL.

Take `OC[C@H]1O[C@H](O[C@]2(CCl)O[C@H](CCl)[C@@H](O)[C@@H]2O)[C@H](O)[C@@H](O)[C@H]1Cl` [Example 2, sucralose]: in series [1], the “Purity after storage, One month” value is recorded as 99.65%; the “Purity after storage, Six months” value turned out to be 99.50%; the “Purity after storage, Three months” value is 99.59%; the “Purity after storage, Twelve months” value came out at 99.33%. The “Purity after storage, Twenty-four months” value in series [1] was 98.98%. In series [2], the Bulk density is 1.056 g/mL.

`OC[C@H]1O[C@H](O[C@]2(CCl)O[C@H](CCl)[C@@H](O)[C@@H]2O)[C@H](O)[C@@H](O)[C@H]1Cl` [Example 6, sucralose]: in series [1], the “Purity after storage, One month” value was found to be 99.74%; the “Purity after storage, Six months” value is recorded as 99.63%; the “Purity after storage, Three months” value is given as 99.70%; the “Purity after storage, Twelve months” value is 99.51%. The “Purity after storage, Twenty-four months” value in series [1] was 99.23%.

For the compound `OC[C@H]1O[C@H](O[C@]2(CCl)O[C@H](CCl)[C@@H](O)[C@@H]2O)[C@H](O)[C@@H](O)[C@H]1Cl` [Comparative Example 1, sucralose], in series [1], the “Purity after storage, One month” value turned out to be 99.61%; the “Purity after storage, Six months” value is reported as 99.51%; the “Purity after storage, Three months” value turned out to be 99.57%; the “Purity after storage, Twelve months” value is listed as 99.38%. Also, in series [1], the “Purity after storage, Twenty-four months” value came out at 99.12%. Also, the Bulk density in series [2] worked out at 0.981 g/mL.

Turning to `OC[C@H]1O[C@H](O[C@]2(CCl)O[C@H](CCl)[C@@H](O)[C@@H]2O)[C@H](O)[C@@H](O)[C@H]1Cl` [Comparative Example 2, sucralose], in series [1], the “Purity after storage, One month” value came to 99.73%; the “Purity after storage, Six months” value worked out at 99.63%; the “Purity after storage, Three months” value was 99.69%; the “Purity after storage, Twelve months” value came out at 99.47%. Besides, the “Purity after storage, Twenty-four months” value in series [1] was 99.20%. In series [2], this compound displayed a Bulk density of 1.021 g/mL.

In the case of `OC[C@H]1O[C@H](O[C@]2(CCl)O[C@H](CCl)[C@@H](O)[C@@H]2O)[C@H](O)[C@@H](O)[C@H]1Cl` [Example 1, sucralose], in series [1], the “Purity after storage, One month” value is 99.95%; the “Purity after storage, Six months” value is reported as 99.87%; the “Purity after storage, Three months” value is listed as 99.92%; the “Purity after storage, Twelve months” value was 99.79%. Further, in series [1], the “Purity after storage, Twenty-four months” value worked out at 99.56%. Also, the Bulk density in series [2] is on record as 1.109 g/mL.
